Laboratory results taken from patent publication US20170165286A1, “COMPOSITIONS AND METHODS FOR TREATING DIABETES AND LIVER DISEASES” (Cempra Pharmaceuticals, Inc., priority 2014, published 2017).
Entries after “also recorded” stand apart in the source; their conditions may differ.

Assays:
Assay type in all cases: in vivo
[1] = system: lung mRNA expression levels; experiment: Bleomycin-induced lung injury: quantitative RT-PCR of lung; settings: bleomycin mice lung, normalized to GAPDH, vehicle 1.00, heading says 50 mg/kg q.d.
Protocol: Bleomycin-Induced Lung Injury. Lung inflammation is induced in female mice by a single intratracheal administration of bleomycin. Twenty mice are divided into two groups. […] It is to be understood herein that 100 mg/kg in mice is generally considered to be equivalent to a 450-500 mg, such as 480 mg, dose in humans. Animals are sacrificed on Day 7.
Pathogen-free 7 weeks old female C57BL/6J mice are obtained from CLEA Japan (Tokyo, Japan) and allowed to acclimate at least 6 days. On day 0, twenty mice are induced to develop pulmonary fibrosis by a single intratracheal administration of bleomycin sulphate (BLM, Nippon Kayaku, Japan) in 0.9% saline in a volume of 50 μL per animal using a Microsprayer® (Penn-Century, USA). Individual body weight is measured daily during the experiment period. Survival, clinical signs and behavior of mice is monitored daily.
Solithromycin Reduces Inflammation In Mice Caused By Bleomycin-Induced Lung Injury. Pulmonary fibrosis is a problem in the management of patients who have received chemotherapy for malignancies particularly with regimens that contain bleomycin (BLM), methotrexate, cyclophosphamide, and many new agents. These patients are susceptible to pulmonary infections as well as to inflammation from pulmonary injury. […] The effects of solithromycin on the ability to prevent lung inflammation and fibrosis is described in a bleomycin induced-lung inflammation and fibrosis model. Group 1 (BLM-Vehicle): Ten BLM-induced pulmonary fibrosis model mice are orally administered vehicle (Carboxymethyl cellulose) at a volume of 10 mL/kg once daily from day −2 (two days before BLM administration) to day 6. […]
Quantitative RT-PCR. Total RNA was extracted from lung samples using RNAiso (Takara Bio, Japan). One μg of RNA was reverse-transcribed using a reaction mixture containing 4.4 mM MgCl2 (Roche, Switzerland), 40 U RNase inhibitor (Toyobo, Japan), 0.5 mM dNTP (Promega, USA), 6.28 μM random hexamer (Promega), 5× first strand buffer (Promega), 10 mM dithiothreitol (Invitrogen) and 200 U MMLV-RT (Invitrogen) in a final volume of 20 μL. The reaction was carried out for 1 hour at 37° C., followed by 5 minutes at 99° C. Real-time PCR was performed using real-time PCR DICE and SYBR premix Taq (Takara Bio). To calculate the relative mRNA expression level, the expression of each gene was normalized to that of reference gene GAPDH.
Analyses of BALF (bronchoalveolar lavage fluid). The cells in BALF are counted with a hemocytometer, and cell differentials are determined in cytospin preparations stained with Diff-Quik (Sysmex, Japan) MMP-9 in the supernatants from BALF are quantified by an enzyme-linked immunosorbent assay (ELISA; Cat# MMPT90, R&D Systems, USA). Histopathological assays for lung sections are performed according to standard methods. […]

STAM mice [2] = experiment: STAM model: Sirius red staining, fibrosis area; settings: for Sirius red-positive area (% of area showing fibrosis): STAM mice liver
Protocol: (§1) NASH-HCC (STAM™) Model. C57BL/6 (15-day-pregnant female) mice are obtained from Charles River Laboratories Japan (Kanagawa, Japan). Male pups are selected for the study. NASH is induced in male mice by a single subcutaneous injection of 200 μg streptozotocin (STZ, Sigma-Aldrich, USA) solution 2 days after birth, followed by feeding a HFD (57 kcal % fat, cat#: HFD32, CLEA Japan, Japan) beginning at 4 weeks of age. At 5 weeks of age, mice are divided into a control group and one or more treated group (generally 8 mice per group). Animals are sacrificed at 9 weeks of age, and biochemical, histological, and gene expression analyses are performed.
(§2) During weeks 5-9 (starting at day 35±2), test compound is administered (generally orally) at various doses diluted to 10 mL/kg and according to various dosing protocols to treatment groups (8 mice each) while a second group (8 mice) is administered vehicle only. Animals are sacrificed at 9 weeks.
To visualize collagen deposition (a measure of fibrosis), Bouin's fixed left lateral liver sections are stained using picro-Sirius red solution (Waldeck, Germany).
For quantitative analysis of fibrosis area, bright field images of Sirius red-stained sections are captured around the central vein using a digital camera (DFC280; Leica, Germany) at 200-fold magnification, and the positive areas in 5 fields/section are measured using ImageJ software (National Institute of Health, USA). For quantitative analysis of inflammation area, bright field images of F4/80-immunostained sections are captured around the central vein using a digital camera (DFC280; Leica, Germany) at 200-fold magnification, and the positive areas in 5 fields/section are measured using ImageJ software (National Institute of Health, USA).
(§3) Illustrative dose response test groups. Group 1-Normal. Eight normal mice are fed with a normal diet ad libitum without any treatment until 9 weeks of age. Group 2-Vehicle. Eight NASH mice are orally administered vehicle (0.5% w/v methylcellulose+0.2% Tween®80) in a volume of 10 mL/kg twice daily from 5 to 9 week of age. Group 3-solithromycin 5 mg/kg. Eight NASH mice are orally administered vehicle supplemented with solithromycin at a dose of 5 mg/kg in the morning and the vehicle in the evening (5 mg/kg/day) from 5 to 9 weeks of age. Group 4-solithromycin 10 mg/kg. Eight NASH mice are orally administered vehicle supplemented with solithromycin at a dose of 10 mg/kg twice daily (20 mg/kg/day) from 5 to 9 weeks of age. Group 5-solithromycin 25 mg/kg. Eight NASH mice are orally administered vehicle supplemented with solithromycin at a dose of 25 mg/kg twice daily (50 mg/kg/day) from 5 to 9 weeks of age. Group 6-solithromycin 50 mg/kg. Eight NASH mice are orally administered vehicle supplemented with solithromycin at a dose of 50 mg/kg once daily (50 mg/kg/day) from 5 to 9 weeks of age.

STAM mice [3] = experiment: STAM model: liver triglyceride content
Protocol: as §1, §2
Measurement of liver biochemistry—liver triglyceride content. Liver total lipid-extracts are obtained by Folch's method (Folch J. et al., J. Biol. Chem., 1957; 226:497). Liver samples are homogenized in chloroform-methanol (2:1, v/v) and incubated overnight at room temperature. After washing with chloroform-methanol-water (8:4:3, v/v/v), the extracts are evaporated to dryness, and dissolved in isopropanol. Liver triglyceride (TG) and cholesterol contents were measured by Triglyceride E-test and Cholesterol E-test (Wako Pure Chemical Industries, Japan), respectively. Extracts are diluted 2-fold in isopropanol when the triglyceride content exceeds the detection limit.
as §3

CC[C@H]1OC(=O)[C@@](C)(F)C(=O)[C@H](C)[C@@H](O[C@@H]2O[C@H](C)C[C@H](N(C)C)[C@H]2O)[C@](C)(OC)C[C@@H](C)C(=O)[C@H](C)[C@H]2N(CCCCn3cc(-c4cccc(N)c4)nn3)C(=O)O[C@]12C [solithromycin]
Relative MCP-1 mRNA expression [1]: 0.38 ± 0.32
Relative MMP-9 mRNA expression [1]: 0.42 ± 0.45
Relative TNF-α mRNA expression ([1]; listed as SOLI): 2.45 ± 2.10
Relative TNF-α mRNA expression ([1]; listed as Solithromycin): up-regulated
Sirius red-positive area (% of area showing fibrosis) (STAM mice [2]; 5 mg/kg): no statistically significant differences
Sirius red-positive area (% of area showing fibrosis) (STAM mice [2]; 5 mg/kg, listed as SOLI): 0.85 ± 0.28%
Sirius red-positive area (% of area showing fibrosis) (STAM mice [2]; 10 mg/kg): tended to decrease
Sirius red-positive area (% of area showing fibrosis) (STAM mice [2]; 10 mg/kg, listed as SOLI): 0.72 ± 0.27%
Sirius red-positive area (% of area showing fibrosis) (STAM mice [2]; 25 mg/kg): significantly decreased; also recorded: Statistically significant reduced fibrosis
Sirius red-positive area (% of area showing fibrosis) (STAM mice [2]; 25 mg/kg, listed as SOLI): 0.65 ± 0.27 %
Fibrosis area (Sirius red-positive area) compared to vehicle group (STAM mice [2]; STAM mice, Group 6 (50 mg/kg q.d.)): significantly decreased
Liver triglyceride (STAM mice [3]; 5 mg/kg q.d.): 127.7 ± 62.3 mg/g liver
Liver triglyceride (STAM mice [3]; 10 mg/kg b.i.d.): 161.8 ± 44.5 mg/g liver
Liver triglyceride (STAM mice [3]; 25 mg/kg b.i.d.): 100.8 ± 35.3 mg/g liver
Liver triglyceride content compared to vehicle group (STAM mice [3]; any doses (Groups 3-6)): no statistically significant differences
